In one test the target is HDAC1 (Homo sapiens (Human), UniProt Q13547). As to conditions: read-out: HDAC1 IC50.
For another test, the target named is HDAC5 (Homo sapiens (Human), UniProt Q9UQL6). As to conditions: read-out: HDAC5 IC50.
For a further test, the target named is HDAC8 (Homo sapiens (Human), UniProt Q9BY41). To be noted: read-out: HDAC8 IC50.
Chain of HDAC8 (Q9BY41 whole entry): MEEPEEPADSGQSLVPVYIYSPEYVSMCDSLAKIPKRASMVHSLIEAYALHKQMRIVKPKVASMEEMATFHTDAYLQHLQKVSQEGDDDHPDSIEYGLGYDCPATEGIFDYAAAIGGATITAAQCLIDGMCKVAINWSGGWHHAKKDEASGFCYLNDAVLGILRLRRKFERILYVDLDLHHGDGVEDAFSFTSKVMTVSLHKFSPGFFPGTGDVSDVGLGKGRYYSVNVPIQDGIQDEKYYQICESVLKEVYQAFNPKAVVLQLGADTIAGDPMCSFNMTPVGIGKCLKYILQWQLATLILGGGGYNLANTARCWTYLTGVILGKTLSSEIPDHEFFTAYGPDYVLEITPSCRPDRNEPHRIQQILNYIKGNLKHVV

Chain of HDAC1 (Q13547 whole entry): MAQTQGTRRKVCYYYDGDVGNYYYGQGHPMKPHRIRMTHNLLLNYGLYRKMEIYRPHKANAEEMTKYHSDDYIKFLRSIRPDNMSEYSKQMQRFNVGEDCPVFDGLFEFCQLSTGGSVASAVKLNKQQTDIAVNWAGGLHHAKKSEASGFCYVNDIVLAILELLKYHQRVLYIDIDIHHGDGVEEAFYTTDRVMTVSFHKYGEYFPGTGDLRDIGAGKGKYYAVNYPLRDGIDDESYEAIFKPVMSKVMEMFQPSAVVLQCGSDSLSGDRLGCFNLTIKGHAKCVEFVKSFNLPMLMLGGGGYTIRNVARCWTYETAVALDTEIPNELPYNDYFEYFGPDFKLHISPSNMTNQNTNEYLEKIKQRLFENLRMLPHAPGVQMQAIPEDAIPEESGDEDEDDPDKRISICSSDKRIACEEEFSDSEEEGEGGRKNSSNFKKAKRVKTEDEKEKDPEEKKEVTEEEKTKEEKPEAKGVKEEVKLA
Chain of HDAC5 (Q9UQL6 656-1122): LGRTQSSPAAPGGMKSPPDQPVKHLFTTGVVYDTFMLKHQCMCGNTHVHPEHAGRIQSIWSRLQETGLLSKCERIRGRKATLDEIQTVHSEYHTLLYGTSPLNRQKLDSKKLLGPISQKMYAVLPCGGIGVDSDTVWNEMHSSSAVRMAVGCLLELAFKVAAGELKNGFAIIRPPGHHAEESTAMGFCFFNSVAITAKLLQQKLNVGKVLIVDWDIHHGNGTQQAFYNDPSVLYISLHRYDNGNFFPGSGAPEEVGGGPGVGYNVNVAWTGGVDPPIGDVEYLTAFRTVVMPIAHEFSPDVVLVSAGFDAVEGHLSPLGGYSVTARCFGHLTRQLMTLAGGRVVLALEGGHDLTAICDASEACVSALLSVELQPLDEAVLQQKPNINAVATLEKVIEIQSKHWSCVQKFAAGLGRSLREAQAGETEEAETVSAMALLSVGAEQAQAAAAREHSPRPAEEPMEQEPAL
Experimental for HDAC1: Assay protocol: In brief, compounds were titrated in 100% DMSO via accoustic dispensing directly to the assay plate using the ECHO 550 [Labcyte]. HDAC enzymes at the concentrations indicated above were added in assay buffer to the assay plates containing the compounds using a Combi [Thermo Scientific]. The wells were mixed, and the plates were allowed to pre-incubate at ambient temperature for 3 h. After the 3 h, the appropriate substrate, at the concentrations indicated above, was added to the wells using a Combi. The wells were mixed, and the plates were allowed to incubate at ambient temperature for 1 h. After the 1 h, the appropriate Developer/stop solution was added to the wells using a Combi. The wells were mixed, and the plates were allowed to incubate at ambient temperature for 1 h. […] Data were analyzed using 4P curve fitting with Activity Base [IDBS] software.

Usually IC50 stands for the midpoint of a concentration-inhibition curve. With `O=C(NC(Cc1ccc(-c2noc(C(F)(F)F)n2)cn1)c1cccc(C(F)(F)F)c1)C1CCOCC1` (racemic) [Example 483, N-(2-{5-[5-(trifluoromethyl)-1,2,4-oxadiazol-3-yl]pyridin-2-yl}-1-[3-(trifluoromethyl)phenyl]ethyl)oxane-4-carboxamide], the IC50 on HDAC1 stood at 630 nM; on HDAC5 it was 510 nM; at HDAC8 it was 6100 nM.
On to `O=C(OCCOCCCl)[C@@H]1CCC(=O)N1c1ccc(-c2noc(C(F)(F)F)n2)c(F)c1` [Example 197, 2-(2-chloroethoxy)ethyl 1-{3-fluoro-4-[5-(trifluoromethyl)-1,2,4-oxadiazol-3-yl]phenyl}-5-oxo-L-prolinate], for which the figures for the IC50 at HDAC1, on HDAC5 and at HDAC8 were 1200 nM, 50 nM and 110 nM, respectively.
On the same counts, the results for `CC(C)C(=O)NC(Cc1ccc(-c2noc(C(F)(F)F)n2)cn1)c1cccc(C(F)(F)F)c1` (racemic) [Example 478, 2-methyl-N-(2-{5-[5-(trifluoromethyl)-1,2,4-oxadiazol-3-yl]pyridin-2-yl}-1-[3-(trifluoromethyl)phenyl]ethyl)propanamide] are 680 nM, 500 nM and 45000 nM.
For `Cn1cnc2cc(COc3nccc(-c4noc(C(F)(F)F)n4)c3Cl)ccc21` [Example 255, 5-[({3-chloro-4-[5-(trifluoromethyl)-1,2,4-oxadiazol-3-yl]pyridin-2-yl}oxy)methyl]-1-methyl-1H-benzimidazole] the same measures were 1700 nM, 380 nM and 1600 nM.
With `COCC(=O)NC(Cc1ccc(-c2noc(C(F)(F)F)n2)cn1)c1cccc(C(F)(F)F)c1` (racemic) [Example 480, 2-methoxy-N-(2-{5-[5-(trifluoromethyl)-1,2,4-oxadiazol-3-yl]pyridin-2-yl}-1-[3-(trifluoromethyl)phenyl]ethyl)acetamide], the IC50 on HDAC1 turned out to be 670 nM; on HDAC5 it was 620 nM; on HDAC8, 5300 nM.
On the same counts, the results for `CC(C)(C)OC(=O)[C@@H]1COCC(=O)N1c1ccc(-c2noc(C(F)(F)F)n2)c(F)c1` [Example 471, tert-butyl (3S)-4-{3-fluoro-4-[5-(trifluoromethyl)-1,2,4-oxadiazol-3-yl]phenyl}-5-oxomorpholine-3-carboxylate] are 870 nM, 54 nM and 3800 nM.
With `O=C1CCC(c2ccccc2F)N1c1ccc(-c2noc(C(F)(F)F)n2)cc1F` (racemic) [Example 118, 1-(2-fluoro-4-(5-(trifluoromethyl)-1,2,4-oxadiazol-3-yl)phenyl)-5-(2-fluorophenyl)pyrrolidin-2-one], the IC50 at HDAC1 worked out at 570 nM; on HDAC5, 130 nM; on HDAC8 it was 2500 nM.
`CN(C(=O)[C@@H]1CCC(=O)N1c1ccc(-c2noc(C(F)(F)F)n2)c(F)c1)C(C)(C)C` [Example 340, N-tert-butyl-1-{3-fluoro-4-[5-(trifluoromethyl)-1,2,4-oxadiazol-3-yl]phenyl}-N-methyl-5-oxo-L-prolinamide]: the results for the IC50 on HDAC1, on HDAC5 and at HDAC8 were 31000 nM, 1800 nM and 27000 nM, respectively.
For `Cn1c([C@@H]2CCC(=O)N2c2ccc(-c3noc(C(F)(F)F)n3)cc2)nc2ccccc21` [Example 108, (S)-5-(1-methyl-1H-benzo[d]imidazol-2-yl)-1-(4-(5-(trifluoromethyl)-1,2,4-oxadiazol-3-yl)phenyl)pyrrolidin-2-one], the results for the IC50 on HDAC1, at HDAC5 and on HDAC8 were 2000 nM, 120 nM and 2900 nM, respectively.
For `FC(F)(F)c1nc(-c2ccc(N3CCOCC3c3cccnc3)nc2)no1` (stereo not drawn) [Example 133, 3-(pyridin-3-yl)-4-(5-(5-(trifluoromethyl)-1,2,4-oxadiazol-3-yl)pyridin-2-yl)morpholine] the same measures were 160 nM, 31 nM and 350 nM.
For `O=C(NC(Cc1ccc(-c2noc(C(F)(F)F)n2)cn1)c1cccc(C(F)(F)F)c1)c1cccnc1` (racemic) [Example 487, N-(2-{5-[5-(trifluoromethyl)-1,2,4-oxadiazol-3-yl]pyridin-2-yl}-1-[3-(trifluoromethyl)phenyl]ethyl)pyridine-3-carboxamide], the results for the IC50 on HDAC1, at HDAC5 and at HDAC8 were 670 nM, 380 nM and 5300 nM, respectively.
With `O=C1COC[C@@H](c2ccccc2)N1c1ccc(-c2noc(C(F)(F)F)n2)cn1` [Example 126, (R)-5-phenyl-4-(5-(5-(trifluoromethyl)-1,2,4-oxadiazol-3-yl)pyridin-2-yl)morpholin-3-one], the IC50 at HDAC1 amounted to 1400 nM; at HDAC5, 190 nM; on HDAC8 it was 5000 nM.

(Values after patent US11066396B2 (priority 2016, dated 2021).)
